The values below are quoted from earlier work in patent US20240368046A1, “UREA-BASED C[…] WITH AN INORGANIC ACID” (Y ara International ASA, priority 2021, published 2024).

Regarding urea sulphate, the pKa result is “about 1.5”.
